Experimental findings from US20090123447A1, “COMPOSITIONS AND METHODS TO INHIBIT RNA VIRAL REPRODUCTION” (priority 2007, published 2009) are described below.

Assay [1] deals with subgenomic HCV replicon of genotype 1b. Put plainly: microbe, parasite or virus in culture. The format is cell-based, hepatitis C virus. As for the experimental part:
Huh7 human hepatoma cells were cultured in Dulbecco's modified Eagle medium (DMEM; Invitrogen, Carlsbad, Calif., USA) supplemented with 10% fetal bovine serum (FBS; Invitrogen), 100 units/ml of penicillin, and 100 μg/ml of streptomycin in a 5% CO2 incubator. SgPC2 cells are G418-selected, pooled Huh7 cell clones that support the continuous replication of a subgenomic HCV replicon of genotype 1b and [29] (GenBank Accession No. AJ242652) that carries a S11791 adaptive mutation within the NS5A region. SgPC2 cells were maintained in the above medium supplemented with 0.5 mg/ml G418 (Invitrogen). G418 was removed at least 1 day before cell treatments.

Assay [2] has as its system intracellular calcium concentration ([Ca^2+]i). In words: [Ca^2+]i measurement with Indo-1 AM in SgPC2 cells. The format is cell-based, human. As for the experimental part: Briefly, on the day of the experiment, cells were washed in Krebs-Ringer phosphate buffer (KRPH; pH 7.4, containing 1.0 mM MgSO4, 1.3 mM CaCl2, 10 mM Hepes, 5 mM glucose, 125 mM NaCl, 5 mM KCl, and 10 mM sodium phosphate) and subsequently loaded with 10-20 μM Indo-1 AM (70 μl/coverslip; Molecular Probes, Inc., Eugene, Oreg., USA) containing 10 μM probenecid (Molecular Probes) for 30 min at 37° C. The attached cells were washed and bathed in KRPH/probenecid at 4° C. or room temperature until further analysis. Then, coverslips were individually submerged into KRPH and preequilibrated inside the […] fluorimeter (Hitachi) in darkness for 3 min, and [Ca^2+]i was monitored continuously at 37° C., with excitation at […] and emission at 400 and 450 nm. H2O2 and other agents were injected at different time points, as indicated under Results. [Ca^2+]i was calculated as described. Rmax was determined by adding 8-16 μM digitonin and Rmin with 10 mM ethylene glycol-bis(β-aminoethyl)-N,N,N'-tetraacetic acid (EGTA). […] The baseline, which represented unstimulated cells scanned over time, was plotted along with other measurements or subtracted from the other plots. Cells were serum-depleted, 1 day before the experiment, by incubating them overnight in DMEM plus 0.5% FBS. […] Then, CaCl2 was added before determining the Rmax for each run.

Assay [3] has as its system HCV replication complex (RC). Put plainly: In vitro HCV replication assay with cytoplasmic lysates of SgPC2 cells. The format is cell-based, hepatitis C virus. Particulars: for effect on the suppression of in vitro HCV replication by H2O2: pretreatment of SgPC2 cells before H2O2. How it is done:
In vitro replication assay was carried out according to the protocol of Ali et al., with slight modifications. Briefly, SgPC2 cells were grown to approximately 50-60% confluence in 100-mm dishes. Then, […], and cytoplasmic lysates were prepared by gently lysing the cells in the incomplete replication buffer (prepared without dithiothreitol) immediately after treating the cells with lysolecithin-containing washing solution (150 mM sucrose, 30 mM Hepes, pH 7.4, 33 mM ammonium chloride, 7 mM KCl, 4.5 mM magnesium acetate, 250 μg/ml lysolecithin) for 1-2 min. Twenty to 50 μCi of [α-^32P]CTP (3000 Ci/mmol) and 1-2 μg of actinomycin D were added to 70 μl of these cytoplasmic lysates, and the replication reaction was allowed to proceed for 1 h at 30° C. Then, RNA was isolated by phenol:chloroform extraction and ethanol precipitation. The ^32P-labeled transcripts were then analyzed on a 1% formaldehyde agarose gel which was subsequently washed with H2O, dried, and analyzed with a phosphoimager.

The next assay concerns the target T1, full-length NS5B (Hepatitis C virus genotype 1b, UniProt P26663).
T1 construct: Full-length NS5B protein was purified from Escherichia coli; made in house; host or cells: Escherichia coli
In words: NS5B RdRp assay, de novo RNA synthesis in vitro. The format is biochemical. From the text:
Full-length NS5B protein was purified from Escherichia coli, as previously described, and was used to catalyze de novo RNA synthesis in vitro [36].

For a further assay, the system named is JFH1 HCV (genotype 2a). In kind it is cell-based, hepatitis C virus. How it is done: For viral RNA transfection, JFH1, JFH1/GND, and pSGR-JFH1-Luc were linearized with XbaI and used to synthesize the corresponding positive-sense stranded HCV RNA, as previously described (68). Then, 5×10^6 Huh7 cells were rinsed with Opti-Mem (Invitrogen), mixed briefly with 10-20 μg of the in vitro transcribed RNA in 0.4 ml of Opti-Mem, and then electroporated at 260 volts and 950 μF. […] Medium was changed daily. For infection with HCV, medium collected from JFH1 RNA-transfected cells were cleared of cell debris, as described, and added to naïve Huh7 cells. Typically, 1:2 or 3:2 ratio of the virus-containing medium and fresh cell culture medium were used.
JFH1/GND was used as the negative control. When L-buthionine S,R-sulfoximine (BSO) was used, the cells were pretreated with BSO for 16-24 hrs prior to the initiation of treatments.
Intracellular JFH1 HCV RNA content was also analyzed by qRT-PCR (Taqman), using ABI7300 real time PCR system and one step RT-PCR kit from Applied Biosystems. The forward primer was 5′-[…]-3′ (nt. 146 to 164) and the reverse primer, 5′-[…]-3′ (nt. 277 to 295). The probe was 5′[…]3′ (nt. 168 to 188) and was fluorogenically labeled with FAM (5′) and TAMRA (3′) (Biosearch Technologies, Novato, Calif.). Briefly, the reactions were carried out at 48° C. for 30 min for reverse transcription, followed by denaturation at 95° C. for 10 min, and then 50 cycles of 15 sec denaturation at 95° C. plus 60 sec of annealing and extension at 60° C. All samples were analyzed in duplicates or triplicates. In vitro RNA transcripts were used to generate standard curve to determine RNA copy numbers. The level of 18S rRNA was also analyzed, using manufacturer-optimized protocol, as the control.
To analyze the amount of the extracellular HCV RNA, medium from the cells were cleared by low-speed centrifugation and then, treated with RNaseA at room temperature. Then, the RNA samples were extracted, using Trizol LS Reagent (Invitrogen), and analyzed for HCV RNA content by qRT-PCR.

The test system of assay [4] is newly synthesized HCV RNA. Put plainly: 3H labeling of newly synthesized HCV RNA in SgPC2 cells. In kind it is cell-based, hepatitis C virus. The settings on record: 6 h. How it is done:
One million SgPC2 cells were pretreated with 2 μM BAPTA-AM or DMSO alone for 1 h and then treated with 0 or 100 μM H2O2 in the presence of 100 μCi of [^3H]uridine (35-50 Ci/mmol; MP Biomedicals, Irvine, Calif., USA) and 4 μg/ml actinomycin D (Sigma-Aldrich) for 5 to 6 h and then lysed for the RNA isolation. RNA was analyzed on a 1% formaldehyde agarose gel, which was then treated with 1 M sodium salicylate for 20-30 min for fluorography. The RNA gel was also stained with ethidium bromide to visualize rRNA bands to serve as loading controls.

T1 sequence (P26663 2420-3010): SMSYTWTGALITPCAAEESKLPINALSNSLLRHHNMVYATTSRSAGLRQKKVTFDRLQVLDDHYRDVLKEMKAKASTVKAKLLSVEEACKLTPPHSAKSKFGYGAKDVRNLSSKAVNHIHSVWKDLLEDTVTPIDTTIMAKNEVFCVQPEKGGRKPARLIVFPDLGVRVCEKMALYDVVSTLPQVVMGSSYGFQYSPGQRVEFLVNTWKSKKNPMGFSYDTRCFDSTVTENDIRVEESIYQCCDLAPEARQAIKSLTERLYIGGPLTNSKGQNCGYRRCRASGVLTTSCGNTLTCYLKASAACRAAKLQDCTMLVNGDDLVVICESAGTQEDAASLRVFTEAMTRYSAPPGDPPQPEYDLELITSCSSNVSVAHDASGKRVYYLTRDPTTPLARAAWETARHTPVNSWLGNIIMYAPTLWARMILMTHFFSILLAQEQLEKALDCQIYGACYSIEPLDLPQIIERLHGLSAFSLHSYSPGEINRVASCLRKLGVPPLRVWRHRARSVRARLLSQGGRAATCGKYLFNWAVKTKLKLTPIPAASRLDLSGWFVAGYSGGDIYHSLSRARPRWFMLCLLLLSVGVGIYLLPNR

Consider `c1ccc2c(c1)[I+]c1ccccc1-2` [DPI, Diphenylene Iodonium, reference compound], for which, in assay [1], the “effect on HCV RNA level / replication” value is given as “significantly elevated”. Take `N.N.N.N.N.N.N.N.N.N.N.N.N.N.[Cl-].[Cl-].[Cl-].[Cl-].[Cl-].[Cl-].[O-2].[O-2].[Ru+3].[Ru+3].[Ru+4]` [ruthenium red, reference compound]: the “basal calcium or magnitude/kinetics of the peroxide-induced calcium elevation” value in assay [2] was “no effect”. Consider `[Ca+2].[Cl-].[Cl-]` [CaCl2], for which the “in vitro HCV RNA replication, agent added directly to the cytoplasmic lysates” value in assay [3] (added to untreated lysates before assay) is “could decrease”. The “in vitro de novo RNA synthesis by NS5B” value at full-length NS5B (0.1 and 1 μM) is recorded as “only marginally suppressed”. Further, the NS5B polymerase activity result on full-length NS5B (higher concentrations) is reported as “enhanced the polymerase activity”. As for `N[C@@H](CCC(=O)N[C@@H](CS)C(=O)NCC(=O)O)C(=O)O` [GSH, glutathione, reference compound], the “restoration of HCV RNA levels suppressed by BSO” value in the assay with JFH1 HCV (genotype 2a) is given as “not able to restore HCV replication”. With `C/C=C(/C)C(=O)O[C@H]1C(C)=C2[C@H]([C@@H]1OC(=O)CCCCCCC)[C@@](C)(OC(C)=O)C[C@H](OC(=O)CCC)[C@@]1(O)[C@H]2OC(=O)[C@@]1(C)O` [TG, thapsigargin, reference compound], the activity at 0.4 µM in assay [2] (Homo sapiens, 400 nM TG pretreatment 10 min, no extracellular calcium, read-out: peroxide-induced calcium elevation after TG pretreatment, % of control) came to 58.3 ± 8.4%. Moreover, the “change in [Ca^2+]i” value in assay [2] (SgPC2 cells) is reported as “transient rise”. In addition, the “AUC of TG-induced calcium response in control cells” value in assay [2] (no extracellular calcium, no H2O2 pretreatment) worked out at 772.3±189.3 Ca^2+/min.

As for `C[C@H](CCC(=O)O)C[C@H](C)C[C@H](C)C(=O)/C=C(\O)[C@H](C)C[C@H](C)C/C=C/[C@@H](C)[C@@H](O)[C@@H](C)[C@@H](O)C[C@@H]1CC[C@@](C)([C@H]2CC[C@@](C)([C@@H](C)O)O2)O1` [ionomycin], in assay [3], the “effect on the suppression of in vitro HCV replication by H2O2” value was “significantly alleviated”. As to `CC(=O)OCOC(=O)CN(CC(=O)OCOC(C)=O)c1ccccc1OCCOc1ccccc1N(CC(=O)OCOC(C)=O)CC(=O)OCOC(C)=O` [BAPTA-AM, 1,2-bis(2-aminophenoxy)ethane-N,N,N′-tetraacetic acid tetrakis acetoxymethyl ester], the “effect on the suppression of HCV RNA by GO” value in assay [1] (SgPC2 cells, GO 24 h, 130-200 U/ml catalase or 2 μM BAPTA-AM) was “alleviate the suppressive effect of GO”. In addition, the “effect on the suppression of HCV RNA replication by H2O2 ([3H]uridine)” value in assay [4] (2 μM BAPTA-AM pretreatment) is recorded as “completely removed the suppression”. The “amount of HCV RNA synthesized ([3H]uridine, actinomycin D)” value in assay [4] was “no significant effect”. Further, the “effect on the suppression of in vitro HCV replication by H2O2” value in assay [3] is “removed this suppression at both time points tested”. Turning to cyclosporin A [reference compound], the “basal calcium or magnitude/kinetics of the peroxide-induced calcium elevation” value in assay [2] is “no effect”.
